Test results: patent publication US12157746B2, “Tetrahydro-1H-pyrazino[2,1-a]isoindolylquinoline compounds for the treatment of autoimmune disease” (F. HOFFMANN-LA ROCHE AG, priority 2018, dated 2024)

Target: T1, human TLR9 (Homo sapiens, UniProt Q9NR96)
T1 sequence (Q9NR96 26-1032): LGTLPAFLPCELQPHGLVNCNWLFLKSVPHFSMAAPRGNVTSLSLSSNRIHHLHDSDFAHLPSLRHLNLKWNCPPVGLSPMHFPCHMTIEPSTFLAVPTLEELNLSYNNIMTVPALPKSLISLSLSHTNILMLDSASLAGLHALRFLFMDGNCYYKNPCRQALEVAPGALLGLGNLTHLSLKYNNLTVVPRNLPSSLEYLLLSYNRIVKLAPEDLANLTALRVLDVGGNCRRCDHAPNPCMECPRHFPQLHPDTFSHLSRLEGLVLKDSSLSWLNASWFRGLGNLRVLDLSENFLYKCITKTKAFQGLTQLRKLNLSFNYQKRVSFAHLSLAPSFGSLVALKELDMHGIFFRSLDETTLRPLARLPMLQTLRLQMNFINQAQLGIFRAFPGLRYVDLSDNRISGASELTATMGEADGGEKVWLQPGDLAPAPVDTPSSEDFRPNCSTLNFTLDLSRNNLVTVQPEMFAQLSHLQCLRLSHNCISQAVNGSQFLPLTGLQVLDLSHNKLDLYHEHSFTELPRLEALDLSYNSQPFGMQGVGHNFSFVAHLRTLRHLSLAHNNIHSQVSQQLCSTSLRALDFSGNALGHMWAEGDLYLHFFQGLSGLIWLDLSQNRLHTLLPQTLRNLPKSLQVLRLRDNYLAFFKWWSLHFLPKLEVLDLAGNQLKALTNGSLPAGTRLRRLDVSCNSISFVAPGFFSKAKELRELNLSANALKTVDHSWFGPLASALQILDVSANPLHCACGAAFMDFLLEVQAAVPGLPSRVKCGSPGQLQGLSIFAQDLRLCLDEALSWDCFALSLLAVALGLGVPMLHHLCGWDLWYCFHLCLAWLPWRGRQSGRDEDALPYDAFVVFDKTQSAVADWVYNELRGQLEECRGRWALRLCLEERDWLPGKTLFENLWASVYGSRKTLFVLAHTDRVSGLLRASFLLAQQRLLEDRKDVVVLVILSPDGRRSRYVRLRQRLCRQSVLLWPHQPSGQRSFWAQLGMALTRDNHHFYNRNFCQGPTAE
Test: HEK293-Blue-hTLR-9 cells assay
Format: cell-based
Settings: HEK293-Blue-hTLR9 cells, ODN2006 stimulation, 20 hrs, SEAP reporter; read-out: HEK/hTLR9 IC50
Text: HEK293-Blue-hTLR-9 Cells Assay:
A stable HEK293-Blue-hTLR-9 cell line was purchased from InvivoGen (Cat. #: hkb-htlr9, San Diego. California USA). These cells were originally designed for studying the stimulation of human TLR9 by monitoring the activation of NF-κB. A SEAP (secreted embryonic alkaline phosphatase) reporter gene was placed under the control of the IFN-β minimal promoter fused to five NF-κB and AP-1-binding sites. The SEAP was induced by activating NF-κB and AP-1 via stimulating HEK-Blue hTLR9 cells with TLR9 ligands. Therefore the reporter expression was declined by TLR9 antagonist under the stimulation of a ligand, such as ODN2006 (Cat. #: tlrl-2006-1, Invivogen, San Diego, California USA), for incubation of 20 hrs. The cell culture supernatant SEAP reporter activity was determined using QUANTI-Blue™ kit (Cat. #: rep-qb1, Invivogen, San Diego, California, USA) at a wavelength of 640 nm, a detection medium that turns purple or blue in the presence of alkaline phosphatase.
HEK293-Blue-hTLR9 cells were incubated at a density of 250.000-450,000 cells/mL in a volume of 170 μL in a 96-well plate in Dulbecco's Modified Eagle's medium (DMEM) containing 4.5 g/L glucose, 50 U/mL penicillin, […], […], 2 mM L-glutamine, 10% (v/v) heat-inactivated fetal bovine serum with addition of 20 μL test compound 1n a serial dilution in the presence of final DMSO at 1% and 10 μL of 20 uM ODN2006 in above DMEM, perform incubation under 37° C. in a CO2 incubator for 20 hrs. Then 20 μL of the supernatant from each well was incubated with 180 μL Quanti-blue substrate solution at 37° C. for 2 h and the absorbance was read at 620˜655 nm using a spectrophotometer. The signaling pathway that TLR9 activation leads to downstream NF-κB activation has been widely accepted, and therefore similar reporter assay was modified for evaluating TLR9 antagonist.

| Compound | IC50 [nM] |
| --- | --- |
| C[C@@H]1CN(c2ccc(C#N)c3ncccc23)C[C@@H]2c3ccc(N[C@H]4CNC[C@H]4F)cc3CN12 [Example 30, 5-[(4R,10bS)-8-[[(3S,4R)-4-fluoropyrrolidin-3-yl]amino]-4-methyl-3,4,6,10b-tetrahydro-1H-pyrazino[2,1-a]isoindol-2-yl]quinoline-8-carbonitrile] | 96.6 |
| CO[C@@H]1CN(c2ccc3c(c2)CN2[C@H](C)CN(c4ccc(C#N)n5nccc45)C[C@H]32)C[C@H]1N [Example 94, 4-[(4R,10bS)-8-[(3R,4R)-3-amino-4-methoxy-pyrrolidin-1-yl]-4-methyl-3,4,6,10b-tetrahydro-1H-pyrazino[2,1-a]isoindol-2-yl]pyrazolo[1,5-a]pyridine-7-carbonitrile] | 149 |
| C[C@@H]1CN(c2ccc(C#N)c3ncccc23)C[C@@H]2c3ccc(N4CCNC[C@H](O)C4)cc3CN12 [Example 53A, 5-[(4R,10bS)-8-[(6S)-6-hydroxy-1,4-diazepan-1-yl]-4-methyl-3,4,6,10b-tetrahydro-1H-pyrazino[2,1-a]isoindol-2-yl]quinoline-8-carbonitrile] | 56 |
| C[C@@H]1CN(c2ccc(C#N)c3ncccc23)C[C@@H]2c3ccc(N4CCNC[C@](C)(O)C4)cc3CN12 [Example 55A, 5-[(4R,10bS)-8-[(6S)-6-hydroxy-6-methyl-1,4-diazepan-1-yl]-4-methyl-3,4,6,10b-tetrahydro-1H-pyrazino[2,1-a]isoindol-2-yl]quinoline-8-carbonitrile] | 111 |
| C[C@@H]1CN(c2ccc(C#N)c3ncccc23)C[C@@H]2c3ccc(N4CCOC5(CNC5)C4)cc3CN12 [Example 24, 5-[(4R,10bS)-4-methyl-8-(5-oxa-2,8-diazaspiro[3.5]nonan-8-yl)-3,4,6,10b-tetrahydro-1H-pyrazino[2,1-a]isoindol-2-yl]quinoline-8-carbonitrile] | 90.5 |
| C[C@@H]1CN(c2ccc(C#N)c3ncccc23)C[C@@H]2c3ccc(N4CCOC[C@@H](N)C4)cc3CN12 [Example 54B, 5-[(4R,10bS)-8-[(6S)-6-amino-1,4-oxazepan-4-yl]-4-methyl-3,4,6,10b-tetrahydro-1H-pyrazino[2,1-a]isoindol-2-yl]quinoline-8-carbonitrile] | 87.3 |
| C[C@@H]1CN(c2ccc(C#N)c3ncccc23)C[C@@H]2c3cccc(N4CCNCC4)c3CN12 [Example 8, 5-[(4R,10bS)-4-methyl-7-piperazin-1-yl-3,4,6,10b-tetrahydro-1H-pyrazino[2,1-a]isoindol-2-yl]quinoline-8-carbonitrile] | 150 |
| C[C@@H]1CN(c2ccc(C#N)c3ncccc23)C[C@@H]2c3ccc(N4CC[C@@H](N)C4)cc3CN12 [Example 20, 5-[(4R,10bS)-8-[(3R)-3-aminopyrrolidin-1-yl]-4-methyl-3,4,6,10b-tetrahydro-1H-pyrazino[2,1-a]isoindol-2-yl]quinoline-8-carbonitrile] | 86.9 |
| [2H]c1ccc2c(N3C[C@@H](C)N4Cc5cc(N[C@H]6CNC[C@H]6F)ccc5[C@H]4C3)ccc(C#N)c2n1 [Example 91, 5-[(4R,10bS)-8-[[(3S,4R)-4-fluoropyrrolidin-3-yl]amino]-4-methyl-3,4,6,10b-tetrahydro-1H-pyrazino[2,1-a]isoindol-2-yl]-2-deuterio-quinoline-8-carbonitrile] | 70.5 |
| CO[C@H]1CN(c2ccc3c(c2)CN2C3CN(c3ccc(C#N)c4ncccc34)C[C@H]2C)C[C@@H]1N (single isomer, unassigned) [Example 16A] | 113 |
| C[C@@H]1CN(c2ccc(C#N)c3ncccc23)C[C@@H]2c3ccc(N4CCC(C)(N)CC4)cc3CN12 [Example 51, 5-[(4R,10bS)-8-(4-amino-4-methyl-1-piperidyl)-4-methyl-3,4,6,10b-tetrahydro-1H-pyrazino[2,1-a]isoindol-2-yl]quinoline-8-carbonitrile] | 139 |
| C[C@@H]1CN(c2ccc(C#N)c3ncccc23)C[C@@H]2c3ccc(N4C[C@H](N)[C@@H](F)C4)cc3CN12 [Example 49, 5-[(4R,10bS)-8-[(3S,4S)-3-amino-4-fluoro-pyrrolidin-1-yl]-4-methyl-3,4,6,10b-tetrahydro-1H-pyrazino[2,1-a]isoindol-2-yl]quinoline-8-carbonitrile] | 186 |
| C[C@@H]1CN(c2ccc(C#N)c3nccnc23)C[C@@H]2c3ccc(N4CCNCC4)cc3CN12 [Example 7, 8-[(4R,10bS)-4-methyl-8-piperazin-1-yl-3,4,6,10b-tetrahydro-1H-pyrazino[2,1-a]isoindol-2-yl]quinoxaline-5-carbonitrile] | 99.2 |

The remaining molecules from weak to strong by IC50, led by results:

| IC50 [nM] | Compound |
| --- | --- |
| 163 | CO[C@@H]1CN(c2ccc3c(c2)CN2[C@H](C)CN(c4ccc(C#N)n5nccc45)C[C@H]32)CC[C@@H]1N [Example 105, 4-[(4R,10bS)-8-[(3R,4S)-4-amino-3-methoxy-1-piperidyl]-4-methyl-3,4,6,10b-tetrahydro-1H-pyrazino[2,1-a]isoindol-2-yl]pyrazolo[1,5-a]pyridine-7-carbonitrile] |
| 133 | C[C@@H]1CN(c2ccc(C#N)n3nccc23)C[C@@H]2c3ccc(N4CCNCC4)cc3CN12 [Example 5, 4-[(4R,10bS)-4-methyl-8-piperazin-1-yl-3,4,6,10b-tetrahydro-1H-pyrazino[2,1-a]isoindol-2-yl]pyrazolo[1,5-a]pyridine-7-carbonitrile] |
| 126 | C[C@@H]1CN(c2ccc(C#N)n3nccc23)C[C@@H]2c3ccc(N4C[C@@H](N)[C@](C)(O)C4)cc3CN12 [Example 108, 4-[(4R,10bS)-8-[(3R,4R)-4-amino-3-hydroxy-3-methyl-pyrrolidin-1-yl]-4-methyl-3,4,6,10b-tetrahydro-1H-pyrazino[2,1-a]isoindol-2-yl]pyrazolo[1,5-a]pyridine-7-carbonitrile] |
| 123 | C[C@@H]1CN(c2ccc(C#N)c3ncccc23)C[C@@H]2c3ccc(N4CC(C)(N)C4)cc3CN12 [Example 39, 5-[(4R,10bS)-8-(3-amino-3-methyl-azetidin-1-yl)-4-methyl-3,4,6,10b-tetrahydro-1H-pyrazino[2,1-a]isoindol-2-yl]quinoline-8-carbonitrile] |
| 118 | C[C@@H]1CN(c2ccc(C#N)c3ncccc23)C[C@@H]2c3ccc(N4CCNCC(C)(O)C4)cc3CN12 (stereo partly drawn) [Example 55, 5-[(4R,10S)-8-(6-hydroxy-6-methyl-1,4-diazepan-1-yl)-4-methyl-3,4,6,10b-tetrahydro-1H-pyrazino[2,1-a]isoindol-2-yl]quinoline-8-carbonitrile] |
| 69.9 | [2H]c1ccc2c(N3C[C@@H](C)N4Cc5cc(N6CC7CNCC(C6)O7)ccc5[C@H]4C3)ccc(C#N)c2n1 [Example 93, 5-[(4R,10bS)-4-methyl-8-(9-oxa-3,7-diazabicyclo[3.3.1]nonan-3-yl)-3,4,6,10b-tetrahydro-1H-pyrazino[2,1-a]isoindol-2-yl]-2-deuterio-quinoline-8-carbonitrile] |
| 66.8 | C[C@@H]1CN(c2ccc(C#N)c3ncccc23)C[C@@H]2c3ccc(N4CC5(CN(C)C5)C4)cc3CN12 [Example 38, 5-[(4R,10bS)-4-methyl-8-(6-methyl-2,6-diazaspiro[3.3]heptan-2-yl)-3,4,6,10b-tetrahydro-1H-pyrazino[2,1-a]isoindol-2-yl]quinoline-8-carbonitrile] |
